A polymer gas permeability compilation

CH4 permeability [Barrer] | CO2 permeability [Barrer] | H2 permeability [Barrer] | N2 permeability [Barrer] | O2 permeability [Barrer] | SMILES
12000 | 26000 | 11000 | 5100 | 6600 | *C(=C(*)c1ccc2c(c1)C(C)(C)c1ccccc1-2)c1ccc(F)c(F)c1 (repeat unit)
11000 | 18000 | 9900 | 4200 | 5900 | *C(=C(*)c1ccc2c(c1)C(C)(C)c1ccccc1-2)c1cccc(F)c1 (repeat unit)
9100 | 17000 | 8100 | 3300 | 4800 | *C(=C(*)c1ccc2c(c1)C(C)(C)c1ccccc1-2)c1ccccc1 (repeat unit)
470 | 2000 | 1100 | 170 | 450 | *C(=C(*)c1ccc2c(c1)CCC2)c1ccc([Si](C)(C)C)cc1 (repeat unit)
60 | 390 | 360 | 30 | 86 | *C(=C(*)c1ccc2c(c1)CCC2)c1ccccc1 (repeat unit)
1.6 | 63.9 | 108 | 3.36 | 16.2 | *c1ccc(C(c2ccc(N3C(=O)c4ccc(C(c5ccc6c(c5)C(=O)N(*)C6=O)(C(F)(F)F)C(F)(F)F)cc4C3=O)cc2)(C(F)(F)F)C(F)(F)F)cc1 (repeat unit)
1.7 | 54 | 77 | 1.9 | 9.3 | *c1ccc(C(c2ccc(N3C(=O)c4ccc(Oc5cc(C)c(Oc6ccc7c(c6)C(=O)N(*)C7=O)c(C)c5C)cc4C3=O)cc2)(C(F)(F)F)C(F)(F)F)cc1 (repeat unit)
0.84 | 35.6 |  | 1.36 | 6.8 | *c1ccc(C2(c3ccc(*)cc3)c3ccccc3-c3ccccc32)cc1 (repeat unit)
0.0576 | 2.5 | 6.61 | 0.069 | 0.398 | *c1ccc(Cc2ccc(-n3c(=O)c4cc5c(=O)n(*)c(=O)c5cc4c3=O)cc2)cc1 (repeat unit)
0.0532 | 1.58 | 6.35 | 0.0221 | 0.188 | *c1ccc(Cc2ccc(N3C(=O)c4ccc(-c5ccc6c(c5)C(=O)N(*)C6=O)cc4C3=O)cc2)cc1 (repeat unit)
0.0055 | 0.335 |  | 0.0107 | 0.0957 | *c1ccc(Cc2ccc(N3C(=O)c4ccc(-c5ccc6c(c5)C(=O)N(*)C6=O)cc4C3=O)cc2Cl)c(Cl)c1 (repeat unit)
0.0562 | 4.85 |  | 0.168 | 1.22 | *c1ccc(Cc2ccc(N3C(=O)c4ccc(C(c5ccc6c(c5)C(=O)N(*)C6=O)(C(F)(F)F)C(F)(F)F)cc4C3=O)c(O)c2)cc1O (repeat unit)
0.0222 | 1.22 | 5.08 | 0.0357 | 0.242 | *c1ccc(Cc2ccc(N3C(=O)c4ccc(Oc5ccc(Oc6ccc7c(c6)C(=O)N(*)C7=O)cc5)cc4C3=O)cc2)cc1 (repeat unit)
0.4 | 13 |  | 0.59 | 2.94 | *c1ccc(N(c2ccc(N3C(=O)c4ccc(C(c5ccc6c(c5)C(=O)N(*)C6=O)(C(F)(F)F)C(F)(F)F)cc4C3=O)cc2)c2ccc(N(c3ccc(OC)cc3)c3ccc(OC)cc3)cc2)cc1 (repeat unit)
1.24 | 11.8 |  | 0.45 | 1.97 | *c1ccc(N(c2ccc(N3C(=O)c4ccc(C(c5ccc6c(c5)C(=O)N(*)C6=O)(C(F)(F)F)C(F)(F)F)cc4C3=O)cc2)c2ccc(N(c3ccccc3)c3ccccc3)cc2)cc1 (repeat unit)
0.5 | 16.8 |  | 0.89 | 4.28 | *c1ccc(N(c2ccc(OC)cc2)c2ccc(N3C(=O)c4ccc(C(c5ccc6c(c5)C(=O)N(*)C6=O)(C(F)(F)F)C(F)(F)F)cc4C3=O)cc2)cc1 (repeat unit)
0.08 | 4.73 |  | 0.08 | 0.69 | *c1ccc(N(c2ccccc2)c2ccc(N3C(=O)c4ccc(C(c5ccc6c(c5)C(=O)N(*)C6=O)(C(F)(F)F)C(F)(F)F)cc4C3=O)cc2)cc1 (repeat unit)
1.31 | 62 | 107 | 2.57 | 12.7 | *c1ccc(N2C(=O)c3ccc(C(c4ccc5c(c4)C(=O)N(*)C5=O)(C(F)(F)F)C(F)(F)F)cc3C2=O)cc1 (repeat unit)

CH4 permeability [Barrer] | CO2 permeability [Barrer] | H2 permeability [Barrer] | N2 permeability [Barrer] | O2 permeability [Barrer] | SMILES
0.0682 | 2.73 | 7.52 | 0.0995 | 0.591 | *c1ccc(Oc2ccc(-n3c(=O)c4cc5c(=O)n(*)c(=O)c5cc4c3=O)cc2)cc1 (repeat unit)
0.499 | 14.7 | 29.1 | 0.8 | 3.94 | *c1ccc(Oc2ccc(C(c3ccc(Oc4ccc(-n5c(=O)c6cc7c(=O)n(*)c(=O)c7cc6c5=O)cc4)cc3)(C(F)(F)F)C(F)(F)F)cc2)cc1 (repeat unit)
0.18 | 6.14 | 17.3 | 0.275 | 1.6 | *c1ccc(Oc2ccc(C(c3ccc(Oc4ccc(N5C(=O)c6ccc(-c7ccc8c(c7)C(=O)N(*)C8=O)cc6C5=O)cc4)cc3)(C(F)(F)F)C(F)(F)F)cc2)cc1 (repeat unit)
0.105 | 4.67 | 16.1 | 0.195 | 1.14 | *c1ccc(Oc2ccc(C(c3ccc(Oc4ccc(N5C(=O)c6ccc(C(=O)c7ccc8c(c7)C(=O)N(*)C8=O)cc6C5=O)cc4)cc3)(C(F)(F)F)C(F)(F)F)cc2)cc1 (repeat unit)
0.189 | 8.04 | 24.6 | 0.37 | 2.44 | *c1ccc(Oc2ccc(C(c3ccc(Oc4ccc(N5C(=O)c6ccc(C(=O)c7ccc8c(c7)C(=O)N(*)C8=O)cc6C5=O)cc4C(F)(F)F)cc3)(C(F)(F)F)C(F)(F)F)cc2)c(C(F)(F)F)c1 (repeat unit)
0.14 | 9.57 |  | 0.47 | 2.26 | *c1ccc(Oc2ccc(C(c3ccccc3)(c3ccccc3)c3ccc(Oc4ccc(*)cc4)cc3)cc2)cc1 (repeat unit)
0.56 | 21.4 |  | 1.1 | 5.71 | *c1ccc(Oc2ccc(C3(c4ccc(Oc5ccc(N6C(=O)c7ccc(C(c8ccc9c(c8)C(=O)N(*)C9=O)(C(F)(F)F)C(F)(F)F)cc7C6=O)c(C)c5)cc4)OC(=O)c4ccccc43)cc2)cc1C (repeat unit)
0.69 | 19.9 | 61.3 | 1.26 | 4.88 | *c1ccc(Oc2ccc(C3(c4ccc(Oc5ccc(N6C(=O)c7ccc(C(c8ccc9c(c8)C(=O)N(*)C9=O)(C(F)(F)F)C(F)(F)F)cc7C6=O)cc5)cc4)c4ccccc4-c4ccccc43)cc2)cc1 (repeat unit)
2.43 | 61.8 | 151 | 5.2 | 20 | *c1ccc(Oc2ccc(C3(c4ccc(Oc5ccc(N6C(=O)c7ccc(C(c8ccc9c(c8)C(=O)N(*)C9=O)(C(F)(F)F)C(F)(F)F)cc7C6=O)cc5C(F)(F)F)cc4)c4ccccc4-c4ccccc43)cc2)c(C(F)(F)F)c1 (repeat unit)
3.16 | 85.6 |  | 2.95 | 11.3 | *c1ccc(Oc2ccc(N3C(=O)c4cc(Oc5ccc(C(C)(C)C)cc5)c(-c5cc6c(cc5Oc5ccc(C(C)(C)C)cc5)C(=O)N(*)C6=O)cc4C3=O)cc2)cc1 (repeat unit)
0.85 | 30.1 |  | 0.83 | 3.59 | *c1ccc(Oc2ccc(N3C(=O)c4cc(Oc5ccccc5)c(-c5cc6c(cc5Oc5ccccc5)C(=O)N(*)C6=O)cc4C3=O)cc2)cc1 (repeat unit)
0.018 | 0.921 | 3.5 | 0.0215 | 0.174 | *c1ccc(Oc2ccc(N3C(=O)c4ccc(-c5ccc6c(c5)C(=O)N(*)C6=O)cc4C3=O)cc2)cc1 (repeat unit)
0.0109 | 0.625 | 4.19 | 0.0178 | 0.18 | *c1ccc(Oc2ccc(N3C(=O)c4ccc(C(=O)c5ccc6c(c5)C(=O)N(*)C6=O)cc4C3=O)cc2)cc1 (repeat unit)
0.161 | 3.31 | 9.83 | 0.104 | 0.636 | *c1ccc(Oc2ccc(N3C(=O)c4ccc([Si](C)(C)c5ccc6c(c5)C(=O)N(*)C6=O)cc4C3=O)cc2)cc1 (repeat unit)
0.0305 | 1.25 |  | 0.0392 | 0.256 | *c1ccc(Oc2ccc(Oc3ccc(Oc4ccc(N5C(=O)c6ccc(-c7ccc8c(c7)C(=O)N(*)C8=O)cc6C5=O)cc4)cc3)cc2)cc1 (repeat unit)
0.0397 | 1.85 |  | 0.0544 | 0.368 | *c1ccc(Oc2ccc(S(=O)(=O)c3ccc(Oc4ccc(N5C(=O)c6ccc(-c7ccc8c(c7)C(=O)N(*)C8=O)cc6C5=O)cc4)cc3)cc2)cc1 (repeat unit)
0.22 | 15 | 21.1 | 0.4 | 2.56 | *c1ccc(Oc2ccc3ccccc3c2-c2c(Oc3ccc(N4C(=O)c5ccc(C(c6ccc7c(c6)C(=O)N(*)C7=O)(C(F)(F)F)C(F)(F)F)cc5C4=O)cc3)ccc3ccccc23)cc1 (repeat unit)
